The numbers were not newly measured in article PMC9116722 (Cancer chemotherapy and pharmacology, 2022), which cites them from elsewhere.

SMILES strings stand for the structures. Read-outs that look alike come from different tables or passages of the source.

By t½ is commonly meant the time in which the quantity being followed falls by half.

For this data set the following is noted: cited from earlier work.
[1] abbreviates: previous population modeling of the current dataset ref 18.

Consider `C[C@]1(c2nc3c(C(N)=O)cccc3[nH]2)CCCN1` [veliparib], for which, where the note is “population model ref 48”, the Cl/F is given as 20.9 L/h, the V/F is recorded as 173 L and the t½ is 6.1 h. Moreover, under setting [1], the Cl/F is recorded as 17.3 L/h, the V/F is listed as 147 L and the t½ is recorded as 4.0 h.
